Experimental findings from article PMC8689681 (The Journal of Experimental Medicine, 2021) are described below.

The target of the experiment is ADAM17 (Homo sapiens, UniProt P78536). Nature of the experiment: fluorogenic peptide. It counts as biochemical.

For orientation: IC50 means the concentration that inhibits the measured activity by half.

ADAM17, sequence (P78536 215-474 limits assumed): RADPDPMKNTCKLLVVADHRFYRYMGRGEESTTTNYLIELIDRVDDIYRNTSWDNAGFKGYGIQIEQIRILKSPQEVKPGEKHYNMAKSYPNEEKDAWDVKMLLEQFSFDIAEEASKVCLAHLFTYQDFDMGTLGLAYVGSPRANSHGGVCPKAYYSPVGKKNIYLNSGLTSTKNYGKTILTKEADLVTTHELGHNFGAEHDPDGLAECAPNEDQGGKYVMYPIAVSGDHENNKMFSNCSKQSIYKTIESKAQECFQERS

With `CC(C)C[C@H](CC(=O)NO)C(=O)N[C@@H](Cc1ccc2ccccc2c1)C(=O)N[C@@H](C)C(=O)NCCN` [TAPI-1], it took 128 ± 0.9 nM to reach half-maximal inhibition (IC50).
